Earlier results, collected in article PMC10046020, “In Silico Screening and Optimization of Cell-Penetrating Peptides Using Deep Learning Methods” (Biomolecules, 2023).
Read-outs that look alike come from different tables or passages of the source.

Conditions: cited from earlier work; for class (CPP / Non-CPP), Train Set: Spreadsheet S2: peptides collected from CellPPD
Description: Supplement biomolecules-13-00522-s001.zip/biomolecules-2162660_Supplementary Spreadsheets S1 Test Set.csv, table | column: class || Supplement biomolecules-13-00522-s001.zip/biomolecules-2162660_Supplementary Spreadsheets S2 Train Set.csv, table | column: class

[1] = Spreadsheet S1: 150 CPP and 150 non-CPP peptides collected from CellPPD, MLCPP, CPPsite 2.0, Lifetein and other publications
[2] = MLCPP, CPPsite 2.0, Lifetein and other publications

Row | Substance | class (CPP / Non-CPP), Test Set [1] | further results
1 | TERQGKIWFQNRRMK | Non-CPP | –
2 | KKLSECLKRIGDELDN | Non-CPP | –
3 | RKKAAA | – | class (CPP / Non-CPP), Test Set: CPP
4 | ELVVLGKLYGRKKRRQRRR | CPP | –
5 | YGRKKRRQRRRPPLRKKKKKH | CPP | –
6 | FVPIFTHSELQKIREKERNKGQ | Non-CPP | –
7 | APVTGAHMAYVDYWVPCQFTECSGEYVTEEYRKA | Non-CPP | –
8 | NTGTWLKYHS | – | class (CPP / Non-CPP), Test Set: CPP
9 | TAAGDARANAVAKAGLHDLNIETDTERNH | Non-CPP | –
10 | DVVRVWFCNRRQKGKR | CPP | –
11 | YTFGLKTSFNVQ | – | class (CPP / Non-CPP), Test Set: CPP
12 | SDPSVPLRPEEDELIDQ | Non-CPP | –
13 | GRCTKSIPPICFPA | CPP | –
14 | FVPFFTHSELQKIREKERNKGQ | Non-CPP | –
15 | KKKQYTWIHHGVVEVD | Non-CPP | –
16 | KALKKLLAKWAAAKALL | CPP | –
17 | LLATTALLKTTALLKTTA | Non-CPP | –
18 | KGRKKRRQRRRPPQ | CPP | –
19 | WELVVAYGRKKRRQRRR | CPP | –
20 | FLSFLLGPLIDLISKG | Non-CPP | –
21 | LLKTTALLKTTALHKTTA | Non-CPP | –
22 | HGVSGHGQHGVHG | – | class (CPP / Non-CPP), Test Set: Non-CPP
23 | MVMEMRNF | – | class (CPP / Non-CPP), Test Set: Non-CPP
24 | YGRKKRRQRRTALDWSWLQTE | CPP | –
25 | ELFSPIAIAVLGSCVL | Non-CPP | –

Row | Substance | class (CPP / Non-CPP), Test Set [1] | further results
26 | ARFSNPGVWSKVAADIFNMALDTALA | Non-CPP | –
27 | QQPFVQQQQPFVQQ | Non-CPP | –
28 | EILLPNNYNAYESYKYPGMFIALSK | Non-CPP | –
29 | YTMQMLLEIHRKNW | Non-CPP | –
30 | TERQIKIWFQNRCMK | Non-CPP | –
31 | KMTRAQRRAAARRNRWTAR | CPP | –
32 | KKKKKKKKLLLLLLLL | Non-CPP | –
33 | NYQRRCKNQN | – | class (CPP / Non-CPP), Test Set: CPP
34 | AITFYPFAPNQITCIHE | Non-CPP | –
35 | GLFLDTLKGLAGKLLQGLKCIKAGCKP | Non-CPP | –
36 | DKLGVWFIWANNASVFHAYHLKC | Non-CPP | –
37 | CDAGRKQKC | – | class (CPP / Non-CPP), Test Set: CPP
38 | VDFEEAYLAVS | – | class (CPP / Non-CPP), Test Set: Non-CPP
39 | CVKLNDGHFMPVLGFGTYAPPEVPRSKALEVTKLA | Non-CPP | –
40 | HHHHHHHHH | – | class (CPP / Non-CPP), Test Set: CPP
41 | NYRWRCK | – | class (CPP / Non-CPP), Test Set: CPP
42 | RPEGQNYTEGIAVVF | Non-CPP | –
43 | RRRRRRRGGIYLATALAKWALKQ | – | class (CPP / Non-CPP), Train Set [2]: CPP
44 | CSKSSDYQC | – | class (CPP / Non-CPP), Test Set: CPP
45 | LAQLLAQLLAQLGGGGRRRRRRRRR | CPP | –
46 | ACRDRFRRCPADRRLCG | CPP | –
47 | AGCKNFFWKMFTSC | Non-CPP | –
48 | HSDGIFTDSYSRYRKQMAVKKYLAAVLGKRYKQRVKNK | CPP | –
49 | YTPNDITLNNSVALDPIDISIELNKAKSDLEESKE | Non-CPP | –
50 | KLDFLGEGQFATVYKARDKNT | Non-CPP | –

Row | Substance | class (CPP / Non-CPP), Test Set [1] | further results
51 | GRKKRRQRRRG | CPP | –
52 | GFFTLIKAANKLINKTVNKEAGKGGLEIMA | Non-CPP | –
53 | CRGDKGDPC | – | class (CPP / Non-CPP), Test Set: CPP
54 | DAATARGRGRSAASRPTERPRAPARSASRPRRPVD | CPP | –
55 | LILIGRRRRRRRRGC | CPP | –
56 | FGCKNFFWKTFTSC | Non-CPP | –
57 | VQQQQPLGQQQP | – | class (CPP / Non-CPP), Test Set: Non-CPP
58 | RRRRRRRRC | – | class (CPP / Non-CPP), Test Set: CPP
59 | AKRGARSTA | CPP | –
60 | KLALKLACKALKAA | Non-CPP | –
61 | YMVGLCDYHILYSGWGQMDWHPEPHFYAWMYR | Non-CPP | –
62 | CGGGRRRRRRRRRLLLL | CPP | –
63 | CKYGRKKRRQRRR | CPP | –
64 | GIVEQCCDTPCSLYDPENYCN | Non-CPP | –
65 | FKMHEN | – | class (CPP / Non-CPP), Test Set: Non-CPP
66 | SNGHACRPW | – | class (CPP / Non-CPP), Test Set: Non-CPP
67 | VIVYIVVKDASSK | – | class (CPP / Non-CPP), Test Set: Non-CPP
68 | RRRRRRRRK | – | class (CPP / Non-CPP), Test Set: CPP
69 | GLRKRLRKFRNKIKEKGLRKRLRKFRNKIKEK | CPP | –
70 | LALALALALALALAKLAKLAKLAKLAKIKKIKKKIK | CPP | –
71 | IAARIKLRSRQYIKLRHL | Non-CPP | –
72 | FTFGGGYVYFEEYAY | Non-CPP | –
73 | KRKRWHW | – | class (CPP / Non-CPP), Test Set: CPP
74 | NYRWRCKNQ | – | class (CPP / Non-CPP), Test Set: CPP
75 | GNGEQREMAVSRLRDCLDRQA | CPP | –

Row | Substance | class (CPP / Non-CPP), Test Set [1] | further results
76 | ACRGRGRGCGSGSGSCG | CPP | –
77 | ADCKNFFWKTFTSC | Non-CPP | –
78 | PLGPVVHKCCPGFGGLQWLPLLWNWYQNMWGN | Non-CPP | –
79 | DFDMLRCMLGRVYRPCWQV | Non-CPP | –
80 | RKKRRQRRRGKKKKKKKKKKKKKKKGRKKRRQRRR | CPP | –
81 | FKCRRWQWRMKKLGAPSITCVRRAF | CPP | –
82 | GWTNLSAGYLLGPPPGFSPFR | Non-CPP | –
83 | QGARNYKCCFAWC | – | class (CPP / Non-CPP), Test Set: Non-CPP
84 | GRCTKSIPPICWPD | CPP | –
85 | CYFQNCPVG | – | class (CPP / Non-CPP), Test Set: Non-CPP
86 | SARRRRRREW | – | class (CPP / Non-CPP), Test Set: CPP
87 | RRRRRRRHHH | – | class (CPP / Non-CPP), Test Set: CPP
88 | KKLSLCLKRIGDELDS | Non-CPP | –
89 | RRRRRRRRRETWWETWWTEW | CPP | –
90 | VVLYKYRCYKVI | – | class (CPP / Non-CPP), Test Set: CPP
91 | IAARIKLRSRQHIKLRHL | Non-CPP | –
92 | WRWKKKKA | – | class (CPP / Non-CPP), Test Set: CPP
93 | FLGALFKVASKVLPSVFCAITKKC | Non-CPP | –
94 | ICITRRSICMVTCNKEWPQNRNAHTFLI | Non-CPP | –
95 | KLFNGNEVCLDPKEKWVQKVVQIFLK | Non-CPP | –
96 | MAPTKRKGSCPGAAPNKKP | CPP | –
97 | GSSGMIPFPRV | – | class (CPP / Non-CPP), Test Set: Non-CPP
98 | AAVALLPAVLLALLAKNNLKECGLY | CPP | –
99 | GWTLHSAGYLLGPHAI | Non-CPP | –
100 | VKRFKKFFRKLKKLV | CPP | –

Row | Substance | class (CPP / Non-CPP), Test Set [1] | further results
101 | IDLNITMLEDHEFVP | Non-CPP | –
102 | YARVRRRGPRRR | – | class (CPP / Non-CPP), Test Set: CPP
103 | YGRKKRRQRRRGC | CPP | –
104 | TAMRAVDKLLLHLKKLFREGQFNRNFESIIICRDRT | CPP | –
105 | LIKRKRLI | – | class (CPP / Non-CPP), Test Set: Non-CPP
106 | AEQNPIYWARYADWLFTTPLLLLDLALLVDADEGT | CPP | –
107 | RRRRRRRGGKLAKLAKKLAKLAK | – | class (CPP / Non-CPP), Train Set [2]: CPP
108 | NWVTMKDSADSIDHECPRYFDTCERSCKISE | Non-CPP | –
109 | RPKRPTTLNLFPQVPRSQDT | CPP | –
110 | RKGWFKAMKSIAKFIAKEKLKEHL | CPP | –
111 | RQIKIWFQNRRMKWKKGG | CPP | –
112 | QWGYGGMPYGGYGGMGGYGMGGYGMGY | Non-CPP | –
113 | PVVHLTLRQAGDDFSR | Non-CPP | –
114 | WRRRYRRWRRRRRWRRRPRR | CPP | –
115 | TERQIKIWFQNRRMK | Non-CPP | –
116 | LLKHTALLKTTALLKTTA | Non-CPP | –
117 | AGYLLGHINLHHLAHLHHIL | CPP | –
118 | RARRNRRARILFQYRARNRARN | CPP | –
119 | FHFHFRFR | – | class (CPP / Non-CPP), Test Set: CPP
120 | ARRRCSDRFRNCPADEALCGRRR | CPP | –
121 | RRRRRRRGGIYLATALAKWALKQGF | – | class (CPP / Non-CPP), Train Set [2]: CPP
122 | APKRKSGVSK | CPP | –
123 | NYRWRCKN | – | class (CPP / Non-CPP), Test Set: CPP
124 | RRRRWWWW | – | class (CPP / Non-CPP), Test Set: CPP
125 | LMLRTVGYKFHCSLPVNAVHCSLK | Non-CPP | –

Row | Substance | class (CPP / Non-CPP), Test Set [1] | further results
126 | GGVCPKILRRCRRDSDCPGACICRGNGYCGSGSD | CPP | –
127 | YGRKKRRQRRRYGRKKRRQRRR | CPP | –
128 | GRKKRRERRRPPERKC | CPP | –
129 | ACSGRGSGCGSGRGSCG | CPP | –
130 | KRKKKGKGLGKKRDPCLRKYK | CPP | –
131 | SHMMGEFWGDEDMCYRHQRSYET | Non-CPP | –
132 | LNSAGYLLGKPKALAALAK | Non-CPP | –
133 | NSDMAHERKFMWQYNR | Non-CPP | –
134 | TRSSRAGLQFPVGRVIIRLLRK | CPP | –
135 | SWFASTGGRDSKIDVWSLVP | Non-CPP | –
136 | KLAKLAKKLAKLAK | CPP | –
137 | RRRRRRRRRRWWWWWW | CPP | –
138 | GDCLPHLKLCKENKGCCSKKCKRRGTNIEKRCR | CPP | –
139 | RRRRRRRRRR | – | class (CPP / Non-CPP), Test Set: CPP
140 | CAETCIYIPCFTEAVGCKCKDKVCYKN | Non-CPP | –
141 | PLDGMCDKGNYTQ | – | class (CPP / Non-CPP), Test Set: Non-CPP
142 | QIMISA | – | class (CPP / Non-CPP), Test Set: Non-CPP
143 | NAATATRGRSAASRPTQRPRAPARSASRPRRPVQ | CPP | –
144 | RRRRRHHH | – | class (CPP / Non-CPP), Test Set: CPP
145 | IVMVGDGGVGKSAMTIQFIQSTFV | Non-CPP | –
146 | HTPGNSNKWKHLQENKKGRPRR | CPP | –
147 | AHALCLTEFQIKSNRRMKWKKEN | Non-CPP | –
